The source of these data is patent US12377058B1, “Method for inhibiting proliferation of cancer cells” (IMAM MOHAMMAD IBN SAUD ISLAMIC UNIVERSITY, priority 2024, dated 2025).

What all share (assay type): cell-based
Experiment [1] deals with PC3 cancer stem cells. Description: cytotoxic IC50 evaluation against PC3 cells. The source says: (§1) Referring to FIG. 3, cytotoxic inhibitory concentration of 50 (IC50) evaluation of YS3 against various cancer cells is illustrated.
Experiment [2] has as its system A549 lung cancer stem cells. The experiment can be described thus: cytotoxic IC50 evaluation against A549 cells.
Source text: as §1

The subject of experiment [3] is MDA-MB-468 cancer stem cells. The experiment can be described thus: cytotoxic IC50 evaluation against MDA-MB-468 cells. The conditions noted are these: Homo sapiens, read from FIG. 3.
Source text: as §1

The subject of experiment [4] is FaDu cancer stem cells. Description: cytotoxic IC50 evaluation against FaDu cells. The conditions noted are these: Homo sapiens, read from FIG. 3.
Source text: as §1

Experiment [5] relates to HELA cancer stem cells. The experiment can be described thus: cytotoxic IC50 evaluation against HeLa cells.
Source text: as §1

Converted amounts (≈) assume the structure as drawn.

As for `CCCCCOc1ccc(Oc2ccc(C=O)cc2)cc1` [YS3, 4-(4-(pentoxy)phenoxy)benzaldehyde], the IC50 (as a rule, the concentration needed to halve the response being measured) in experiment [1] (Homo sapiens, PC-3, PC3 cancer stem cells, read from FIG. 3) was roughly 4 µg/mL (≈ 14.1 µM); in experiment [2] (Homo sapiens, A549 lung cancer stem cells, read from FIG. 3), roughly 5 µg/mL (≈ 17.6 µM); in experiment [3], roughly 4.5 µg/mL (≈ 15.8 µM); in experiment [4], roughly 4 µg/mL (≈ 14.1 µM); in experiment [5] (Homo sapiens, HELA cancer stem cells, read from FIG. 3), roughly 5 µg/mL (≈ 17.6 µM). Moreover, the “performance compared to doxorubicin (DOX)” value in experiment [1] (PC3 cell line), in experiment [2] (A549 cell line) and in experiment [5] (HeLa cell line) was “comparable to DOX” each time.
